Structures are written as SMILES.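 A five-concentration, 48-hour dose response in 96-well plates underlies each endpoint, interpolated linearly between surrounding concentrations. GI50 is the concentration that inhibits growth by half. TGI: concentration producing complete growth inhibition.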 Bounds are passed on as bounds.

Some test systems named below: SF-539 CNS; EKVX NSCLC; HCT-116 colon; HOP-92 NSCLC; HT29 colon; UACC-62 melanoma; SNB-19 CNS; K-562 leukemia; BT-549 breast; SF-295 CNS.
Common to all, as to assay: NCI anticancer screen, dose series, 48 h

As for `Clc1ccc2ns[s+]c2c1`, the TGI was 37.8 µM in the assay on SF-539 CNS; > 100 µM in the assay on EKVX NSCLC; > 100 µM in the assay with HCT-116 colon; > 100 µM in the assay on HOP-92 NSCLC; > 100 µM in the assay on HT29 colon; > 100 µM in the assay with UACC-62 melanoma. Besides, the TGI in the assay on SNB-19 CNS, in the assay with K-562 leukemia, in the assay on BT-549 breast and with SF-295 CNS was > 100 µM each time.
As to `Nc1cc2[nH]cnc2c(=O)[nH]1`, the TGI in the assay with SF-539 CNS is > 234 µM; with EKVX NSCLC, > 300 µM; in the assay with HCT-116 colon it was > 300 µM; in the assay on HOP-92 NSCLC, > 300 µM; with HT29 colon, > 300 µM; with UACC-62 melanoma, > 300 µM. The TGI in the assay on SNB-19 CNS, in the assay with K-562 leukemia, in the assay on BT-549 breast and in the assay on SF-295 CNS was > 300 µM throughout.
Take `O=C(N/N=C/c1ccc(Cl)cc1)c1[nH]c2ccc(Cl)cc2c1-c1ccccc1`: the GI50 was 0.0947 µM in the assay with SF-539 CNS; 0.317 µM with EKVX NSCLC; 0.114 µM in the assay on HCT-116 colon; 0.424 µM with HOP-92 NSCLC; 0.122 µM in the assay on HT29 colon; 0.191 µM in the assay with UACC-62 melanoma. Also, the GI50 is 0.504 µM with SNB-19 CNS, 0.206 µM in the assay on K-562 leukemia, 0.146 µM with BT-549 breast and 0.0815 µM in the assay with SF-295 CNS. The TGI in the assay on SF-539 CNS is 0.267 µM; with EKVX NSCLC it was > 100 µM; in the assay with HCT-116 colon, 1.56 µM; in the assay with HOP-92 NSCLC, 41.5 µM; with HT29 colon, > 36 µM; in the assay on UACC-62 melanoma it was > 52.5 µM. Moreover, the TGI was > 56.1 µM in the assay on SNB-19 CNS, 12.7 µM in the assay with K-562 leukemia, 3.58 µM in the assay on BT-549 breast and 2.58 µM in the assay on SF-295 CNS.
Consider `CC[C@]1(O)C[C@@H]2CN(CCc3c([nH]c4ccccc34)[C@@](C(=O)OC)(c3cc4c(cc3OC)N(C)[C@H]3[C@@](O)(C(N)=O)[C@H](O)[C@]5(CC)[C@@H]6C[C@@H]6CN6CC[C@]43[C@@H]65)C2)C1`, for which the GI50 is < 0.00333 µM with SF-539 CNS; 0.0624 µM in the assay on EKVX NSCLC; < 0.00333 µM in the assay on HCT-116 colon; < 0.00333 µM with HOP-92 NSCLC; < 0.00333 µM in the assay on HT29 colon; < 0.00333 µM in the assay with UACC-62 melanoma. Besides, the GI50 is < 0.00333 µM with SNB-19 CNS, < 0.00333 µM in the assay on K-562 leukemia, < 0.00333 µM with BT-549 breast and 0.00441 µM in the assay with SF-295 CNS. Moreover, the TGI in the assay with SF-539 CNS was 0.0143 µM; with EKVX NSCLC, > 33.3 µM; with HOP-92 NSCLC it was 1.82 µM; in the assay on UACC-62 melanoma, > 33.3 µM; in the assay with SNB-19 CNS it was > 33.3 µM; in the assay on K-562 leukemia, > 33.3 µM. Besides, the values for the TGI in the assay on BT-549 breast and with SF-295 CNS were 0.708 µM and 2.09 µM, respectively.
Consider `Cc1cc(=O)oc2cc(OC(=O)N(CCCl)CCCl)ccc12`, for which the TGI in the assay with SF-539 CNS was > 100 µM; in the assay on EKVX NSCLC, > 100 µM; with HCT-116 colon, > 100 µM; in the assay with HOP-92 NSCLC, 95.9 µM; with HT29 colon, > 100 µM; in the assay with UACC-62 melanoma, > 100 µM. The TGI with SNB-19 CNS, in the assay on K-562 leukemia, in the assay on BT-549 breast and in the assay with SF-295 CNS was > 100 µM throughout.
Consider `COC(=O)[C@]1(C)CCC[C@@]2(C)[C@@H]3C[C@@H]4[C@H]5C[C@@]3(CC[C@@H]21)C[C@@]45C`, for which the TGI with SF-539 CNS stood at 38.7 µM; in the assay on EKVX NSCLC, 31.7 µM; in the assay with HCT-116 colon, 45.2 µM; in the assay with HOP-92 NSCLC, 29.4 µM; with HT29 colon, 27.6 µM; in the assay with UACC-62 melanoma it was 28 µM. Also, the TGI stood at 26.9 µM in the assay with SNB-19 CNS, 19.1 µM in the assay on K-562 leukemia, 30.2 µM in the assay with BT-549 breast and 28.5 µM with SF-295 CNS.
For the compound `CCCCCCNC(=O)Oc1ccc(/C(=C(/C)Cc2ccc(OC)cc2)c2ccc(OCCN(C)C)cc2)cc1`, the GI50 in the assay with SF-539 CNS was 5.01 µM; in the assay with EKVX NSCLC, 4.91 µM; with HCT-116 colon, 5.52 µM; in the assay on HOP-92 NSCLC it was 3.49 µM; in the assay with HT29 colon, 1.2 µM; with UACC-62 melanoma it was 4.44 µM. Besides, the GI50 with SNB-19 CNS was 5.6 µM; in the assay on K-562 leukemia, 1.1 µM; in the assay on BT-549 breast it was 5.11 µM; in the assay on SF-295 CNS, 5.2 µM. Besides, the TGI with SF-539 CNS amounted to 9.64 µM; with EKVX NSCLC it was 10.1 µM; with HCT-116 colon, 10.3 µM; with HOP-92 NSCLC, 7.9 µM; in the assay with HT29 colon, 4.58 µM; in the assay on UACC-62 melanoma it was 8.72 µM. For the same compound, the TGI in the assay with SNB-19 CNS is 10.4 µM; in the assay on K-562 leukemia it was 3.63 µM; in the assay with BT-549 breast, 9.86 µM; in the assay on SF-295 CNS it was 9.82 µM.
`CCC[CH2][Sn]1([CH2]CCC)[O]C(=O)c2ccc(N)cc2[O]1`: the GI50 with SF-539 CNS was 0.691 µM; in the assay on EKVX NSCLC, 0.285 µM; with HCT-116 colon, 0.965 µM; in the assay on HOP-92 NSCLC it was 0.149 µM; in the assay with HT29 colon, 1.33 µM; with UACC-62 melanoma, 0.364 µM. Moreover, the GI50 is 0.734 µM with SNB-19 CNS, 0.111 µM in the assay with K-562 leukemia, 0.15 µM in the assay with BT-549 breast and 1.41 µM in the assay with SF-295 CNS. Moreover, the TGI with SF-539 CNS was determined as 1.94 µM; with EKVX NSCLC it was 2.47 µM; in the assay on HCT-116 colon, 2.19 µM; with HOP-92 NSCLC, 0.988 µM; in the assay with HT29 colon, 2.73 µM; with UACC-62 melanoma, 1.83 µM. The TGI came to 2.17 µM in the assay on SNB-19 CNS, 8.5 µM in the assay on K-562 leukemia, 0.985 µM in the assay with BT-549 breast and 2.76 µM in the assay with SF-295 CNS.
Regarding `CN(C)CCCc1c2ccccc2nc2ccc(Cl)cc12`, the TGI with SF-539 CNS worked out at 33.6 µM; in the assay with EKVX NSCLC, 35.1 µM; in the assay on HCT-116 colon it was 25.4 µM; in the assay with HOP-92 NSCLC, 23.1 µM; in the assay on HT29 colon it was 28.5 µM; with UACC-62 melanoma, 34.2 µM. The TGI turned out to be 33.5 µM in the assay with SNB-19 CNS, 67.7 µM in the assay with K-562 leukemia, 38.2 µM with BT-549 breast and 30.9 µM in the assay with SF-295 CNS.
Take `CC[C@@]12C=CCN3CC[C@]4(c5cc(NC(=O)COc6cc(OCC(=O)Nc7cc8c(cc7OC)N(C)[C@H]7[C@@](O)(C(=O)OC)[C@H](OC(C)=O)[C@]9(CC)C=CCN%10CC[C@]87[C@@H]%109)cc7oc(-c8ccccc8)cc(=O)c67)c(OC)cc5N(C)[C@@H]4[C@](O)(C(=O)OC)[C@H]1OC(C)=O)[C@H]32`: the GI50 was 4.62 µM in the assay with SF-539 CNS; 3.28 µM in the assay on EKVX NSCLC; 1.79 µM with HCT-116 colon; 7.07 µM in the assay with HOP-92 NSCLC; 3.42 µM in the assay on HT29 colon; 20.1 µM in the assay on UACC-62 melanoma. Also, the GI50 with SNB-19 CNS was 5.71 µM; in the assay on K-562 leukemia, 3.86 µM; with BT-549 breast, 3.7 µM; in the assay with SF-295 CNS, 3.05 µM. For the same compound, the TGI in the assay with SF-539 CNS was > 100 µM; with EKVX NSCLC, > 100 µM; in the assay with HCT-116 colon, 6.14 µM; with HOP-92 NSCLC, 80.4 µM; in the assay on HT29 colon it was > 100 µM; in the assay with UACC-62 melanoma it was 64.6 µM. Further, the TGI in the assay with SNB-19 CNS was > 100 µM; in the assay with K-562 leukemia it was > 100 µM; in the assay on BT-549 breast, > 100 µM; in the assay with SF-295 CNS, 11.9 µM.
Turning to `CN1c2ccccc2S(=O)(=O)n2c(CCc3ccccc3)nnc21`, the TGI in the assay on SF-539 CNS is > 100 µM; in the assay with EKVX NSCLC, > 100 µM; in the assay with HCT-116 colon, > 100 µM; in the assay on HOP-92 NSCLC it was 98.7 µM; in the assay on HT29 colon, > 100 µM; in the assay with UACC-62 melanoma, > 100 µM. Moreover, the TGI with SNB-19 CNS, in the assay with K-562 leukemia, in the assay on BT-549 breast and in the assay with SF-295 CNS was > 100 µM in each case.
As to `COc1cc(/C=C2\CN(C(=O)CCN3CCC(=NO)CC3)C/C(=C\c3cc(OC)c(OC)c(OC)c3)C2=O)cc(OC)c1OC`, the GI50 in the assay with SF-539 CNS was 0.277 µM; in the assay with EKVX NSCLC, 1.82 µM; with HCT-116 colon it was 0.206 µM; with HOP-92 NSCLC it was 0.676 µM; in the assay on HT29 colon, 0.369 µM; in the assay with UACC-62 melanoma, 0.182 µM. Further, the GI50 with SNB-19 CNS is 0.452 µM; in the assay on K-562 leukemia, 0.301 µM; in the assay on BT-549 breast, 0.332 µM; in the assay with SF-295 CNS, 0.656 µM. The TGI with SF-539 CNS turned out to be 0.928 µM; in the assay on EKVX NSCLC it was 4.81 µM; with HCT-116 colon, 0.467 µM; in the assay on HOP-92 NSCLC it was 2.04 µM; with HT29 colon, 1.51 µM; in the assay on UACC-62 melanoma, 0.411 µM. Also, the TGI in the assay on SNB-19 CNS was 1.58 µM; in the assay with K-562 leukemia, > 100 µM; with BT-549 breast it was 1.23 µM; in the assay with SF-295 CNS, 1.67 µM.
Consider `Oc1c(CN2CCCC2)cc(CSCc2ccccc2)c2cccnc12`, for which the GI50 is 1.35 µM with SF-539 CNS; 1.99 µM in the assay on EKVX NSCLC; 0.694 µM in the assay with HCT-116 colon; 4.52 µM with HOP-92 NSCLC; 3.88 µM in the assay on HT29 colon; 0.363 µM in the assay with UACC-62 melanoma. For the same compound, the GI50 with SNB-19 CNS is 1.72 µM; with K-562 leukemia, 0.551 µM; in the assay on BT-549 breast it was 2.27 µM; in the assay on SF-295 CNS, 2.19 µM. The TGI was determined as 3.93 µM in the assay on SF-539 CNS; 11.9 µM in the assay with EKVX NSCLC; 10.1 µM with HCT-116 colon; 17.6 µM in the assay with HOP-92 NSCLC; 14 µM in the assay with HT29 colon; 2.29 µM in the assay with UACC-62 melanoma. Also, the TGI in the assay on SNB-19 CNS came out at 13.5 µM; in the assay with K-562 leukemia it was 10.6 µM; with BT-549 breast, 12.1 µM; in the assay on SF-295 CNS, 8.13 µM.
